Values after ≈ are worked out from the molar mass of the structure shown.
Tests used:
[1] = Solubility of compound in PBS buffer at pH 7.4 incubated for 12 hrs by UV-visible spectrophotometry; type: physicochemical
[2] = test system: K562; assay: cells; settings: Homo sapiens, K562, 72 h
[3] = test system: MCF7; assay: cells; settings: Homo sapiens, MCF7, 72 h
[4] = test system: Huh-7; assay: cells; settings: Homo sapiens, Huh-7, 72 h
[5] = test system: A549; assay: cells; settings: Homo sapiens, A549, 72 h
[6] = test system: NCI-H1975; assay: cells; settings: Homo sapiens, NCI-H1975, 72 h
[7] = test system: HeLa; assay: cells; settings: Homo sapiens, 72 h
[8] = target: Serine/threonine-protein kinase PLK2 (Homo sapiens, UniProt Q9NYY3); assay: Inhibition of recombinant full length human GST-tagged PLK2 expressed in baculovirus expression system using ser/thr 16 as substrate incubated for 1 hr by Z'-LYTE assay
Sequence of Serine/threonine-protein kinase PLK2 (Q9NYY3 whole entry): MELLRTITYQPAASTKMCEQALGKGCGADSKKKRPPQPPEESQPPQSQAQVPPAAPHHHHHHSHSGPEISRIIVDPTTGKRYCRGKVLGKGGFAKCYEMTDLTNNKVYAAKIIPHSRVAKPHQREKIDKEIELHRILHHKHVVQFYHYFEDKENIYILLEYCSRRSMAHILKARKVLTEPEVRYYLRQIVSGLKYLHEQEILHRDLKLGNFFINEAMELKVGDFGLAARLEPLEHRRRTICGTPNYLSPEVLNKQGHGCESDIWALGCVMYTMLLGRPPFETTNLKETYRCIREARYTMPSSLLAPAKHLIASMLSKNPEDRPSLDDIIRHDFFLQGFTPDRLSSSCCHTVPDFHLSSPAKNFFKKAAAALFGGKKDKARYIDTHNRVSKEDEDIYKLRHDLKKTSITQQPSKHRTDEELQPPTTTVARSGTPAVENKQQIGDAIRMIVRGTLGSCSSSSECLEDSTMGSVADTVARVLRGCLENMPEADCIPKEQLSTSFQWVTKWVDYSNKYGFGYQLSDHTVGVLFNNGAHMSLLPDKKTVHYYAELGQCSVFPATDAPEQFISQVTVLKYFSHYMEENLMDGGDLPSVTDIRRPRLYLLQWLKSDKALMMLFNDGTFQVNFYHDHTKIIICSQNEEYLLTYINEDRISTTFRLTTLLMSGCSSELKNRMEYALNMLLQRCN

SMILES | solubility at 12 h [1] [µg/mL] | GI50 [2] [nM] | GI50 [3] [nM] | GI50 [4] [nM] | GI50 [5] [nM] | GI50 [6] [nM] | GI50 [7] [nM] | IC50 [8] [nM]
CC[C@@H]1C(=O)N(C)c2cnc(Nc3cc(F)c(C(=O)NC4CCOCC4)cc3OCCO)nc2N1C(C)C |  | 915 | 931 | 1110 | 1170 | 1920 | 351 | 869
CC[C@@H]1C(=O)N(COC)c2cnc(Nc3ccc(C(=O)NC4CCCC4)cc3OC)nc2N1C1CCCC1 |  | > 10000 | > 10000 | 6760 | 8130 | > 10000 | > 10000 | 
CC[C@@H]1C(=O)N(C)c2cnc(Nc3ccc(C(=O)NC4CCN(C)CC4)cc3OCCO)nc2N1C(C)C |  | 6500 | > 10000 | > 10000 | > 10000 | > 10000 | > 10000 | 
CC[C@@H]1C(=O)N(CCO)c2cnc(Nc3ccc(C(=O)NC4CCCC4)cc3OC)nc2N1C1CCCC1 |  | 4440 | 3720 | 4470 | 5020 | 3830 | 4820 | 
CC[C@@H]1C(=O)N(C)c2cnc(Nc3ccc(C(=O)NCCN4CCN(C)CC4)cc3OCCO)nc2N1C1CCCC1 |  | 187 | 871 | 876 | 540 | 3810 | 892 | 
CC[C@@H]1C(=O)Nc2cnc(Nc3ccc(C(=O)NC4CCCC4)cc3OC)nc2N1C1CCCC1 |  | 810 | 744 | 430 | 729 | 1100 | 728 | 
CC[C@@H]1C(=O)N(C)c2cnc(Nc3cc(F)c(C(=O)NCCN4CCN(C)CC4)cc3OCCO)nc2N1C1CCCC1 |  | 1070 | 908 | 831 | 1190 | 2470 | 225 | 167
CC[C@@H]1C(=O)N(C)c2cnc(Nc3cc(F)c(C(=O)NCCN(C)C)cc3OCCO)nc2N1C1CCCC1 |  | 731 | 1550 | 807 | 1720 | 5130 | 435 | 
CC[C@@H]1C(=O)N(C)c2cnc(Nc3cc(F)c(C(=O)NC4CCN(C)CC4)cc3OCCO)nc2N1C1CCCC1 | 530 (≈ 930 µM) | 24.6 | 81.4 | 66.9 | 44 | 501 | 13.1 | 
CC[C@@H]1C(=O)N(C)c2cnc(Nc3cc(F)c(C(=O)NC4CCN(C)CC4)cc3OCCO)nc2N1C(C)C |  | 540 | 833 | 885 | 852 | 2120 | 274 | 
CCNC(=O)c1cc(OCCO)c(Nc2ncc3c(n2)N(C2CCCC2)[C@H](CC)C(=O)N3C)cc1F |  | 86.3 | 130 | 141 | 98.3 | 253 | 39.4 | 107
CC[C@@H]1C(=O)N(C)c2cnc(Nc3ccc(C(=O)NCCN(C)C)cc3OCCO)nc2N1C1CCCC1 |  | 58.2 | 312 | 239 | 283 | 3200 | 133 | 265
CC[C@@H]1C(=O)N(C)c2cnc(Nc3ccc(C(=O)NC4CCCC4)cc3OCCO)nc2N1C(C)C |  | 1250 | 1820 | 1450 | 2590 | 2370 | 1120 | 
CC[C@@H]1C(=O)N(C)c2cnc(Nc3cc(F)c(C(=O)NCCN4CCOCC4)cc3OCCO)nc2N1C1CCCC1 |  | 100 | 405 | 232 | 172 | 1150 | 36 | 
CC[C@@H]1C(=O)N(C)c2cnc(Nc3cc(F)c(C(=O)NC)cc3OCCO)nc2N1C1CCCC1 |  | 120 | 222 | 113 | 171 | 510 | 47.1 | 
CCC1C(=O)N(C)c2cnc(Nc3cc(F)c(C(=O)NC4CCCC4)cc3OCCO)nc2N1C1CCCC1 (stereo not drawn) |  | 265 | 158 | 349 | 352 | 567 | 123 | 
CC[C@@H]1C(=O)N(C)c2cnc(Nc3ccc(C(=O)NC4CCOCC4)cc3OCCO)nc2N1C(C)C |  | 773 | 1270 | 722 | 3440 | 3550 | 1750 | 

Other lines, results leading:

solubility at 12 h [1] [µg/mL] | GI50 [2] [nM] | GI50 [3] [nM] | GI50 [4] [nM] | GI50 [5] [nM] | GI50 [6] [nM] | GI50 [7] [nM] | IC50 [8] [nM] | SMILES
1140 (≈ 2070 µM) | 69.6 | 61.5 | 71.3 | 36 | 131 | 29.2 |  | CC[C@@H]1C(=O)N(C)c2cnc(Nc3ccc(C(=O)NC4CCN(C)CC4)cc3OCCO)nc2N1C1CCCC1
 | 91.3 | 98.9 | 110 | 71.2 | 158 | 50.7 | 152 | CC[C@@H]1C(=O)N(C)c2cnc(Nc3ccc(C(=O)NC4CCCC4)cc3OCCO)nc2N1C1CCCC1
 | 63.8 | 64.3 | 19.9 | 79.4 | 166 | 41.9 |  | CC[C@@H]1C(=O)N(C)c2cnc(Nc3ccc(C(=O)NC4CCOCC4)cc3OCCO)nc2N1C1CCCC1
 | 47.4 | 162 | 65.9 | 79.3 | 677 | 24.7 |  | CC[C@@H]1C(=O)N(C)c2cnc(Nc3ccc(C(=O)NC(C)C)cc3OCCO)nc2N1C1CCCC1
 | 143 | 269 | 197 | 322 | 676 | 129 |  | CC[C@@H]1C(=O)N(C)c2cnc(Nc3ccc(C(=O)NC4CC4)cc3OCCO)nc2N1C1CCCC1
 | 132 | 252 | 129 | 447 | 1200 | 118 | 290 | CC[C@@H]1C(=O)N(C)c2cnc(Nc3ccc(C(N)=O)cc3OCCO)nc2N1C1CCCC1
 | 98.9 | 331 | 81.6 | 197 | 519 | 82.3 |  | CCNC(=O)c1ccc(Nc2ncc3c(n2)N(C2CCCC2)[C@H](CC)C(=O)N3C)c(OCCO)c1
 | 57.4 | 64.9 | 25.5 | 76.8 | 197 | 45.1 | 36 | CC[C@@H]1C(=O)N(C)c2cnc(Nc3ccc(C(=O)NC4CCCC4)cc3CCO)nc2N1C1CCCC1
 | 46.9 | 135 | 52.4 | 84.4 | 361 | 25.4 |  | CC[C@@H]1C(=O)N(C)c2cnc(Nc3ccc(C(=O)NC)cc3OCCO)nc2N1C1CCCC1
 | 38.1 | 107 | 56 | 87.6 | 220 | 42 | 132 | CC[C@@H]1C(=O)N(C)c2cnc(Nc3ccc(C(C)=O)cc3OCCO)nc2N1C1CCCC1
 | 65.8 | 140 | 216 | 138 | 171 | 122 |  | CC[C@@H]1C(=O)N(C)c2cnc(Nc3ccc(C(=O)NC4CCN(C(C)C)CC4)cc3OCCO)nc2N1C1CCCC1
